# The source made the active and inactive calls. The calls are words filed in the database; no cut-off is given here.
# Experiments:
# [1] = system: Mus musculus; assay: Antipsychotic activity in ip dosed mouse administered 15 mins prior to testing by SmartCube automated system based method; format: functional; details: for minimal effective dose: Mus musculus, ip, read-out: MED
# [2] = system: Mus musculus; assay: Antipsychotic activity in mouse at 30 mg/kg, ip administered 15 mins prior to testing by SmartCube automated system based method relative to standard compound; format: functional
# [3] = system: Mus musculus; assay: Antipsychotic activity in mouse at 3 to 30 mg/kg, ip dosed 15 mins prior to testing by SmartCube automated system based method relative to standard compound; format: functional, organism-based
# [4] = target: D(2) dopamine receptor (Homo sapiens) (UniProt P14416); assay: Displacement of [3H]methyl-spiperone from human recombinant D2 receptor expressed in HEK293 cells at 30 uM after 60 mins by scintillation counting analysis; format: cell-based
# [5] = Protein binding in mouse plasma at 5 uM by LC-MS/MS based equilibrium dialysis method; format: ADME, cell-free; details: read-out: PPB (converted)
# [6] = Half life in mouse liver microsomes at 3 uM in presence of NADPH by LC-MS/MS analysis; format: ADME
# [7] = system: Mus musculus; assay: Antipsychotic activity in mouse at 30 mg/kg, ip administered 15 mins prior to testing by SmartCube automated system based method relative to vehicle; format: functional
# [8] = target: D(2) dopamine receptor (Homo sapiens) (UniProt P14416); assay: Displacement of [3H]methyl-spiperone from human recombinant D2 receptor expressed in HEK293 cells at 10 uM after 60 mins by scintillation counting analysis; format: cell-based
# [9] = Protein binding in rat plasma at 5 uM by LC-MS/MS based equilibrium dialysis method; format: ADME, cell-free; details: read-out: PPB (converted)
# [10] = target: Cytochrome P450 3A4 (Homo sapiens, UniProt P08684); assay: Inhibition of CYP3A4 in human liver microsomes assessed as reduction in midazolam 1-hydroxylation/testosterone 6beta-hydroxylation by LC-MS/MS analysis; format: ADME
# [11] = Half life in rat liver microsomes at 3 uM in presence of NADPH by LC-MS/MS analysis; format: ADME
# [12] = target: Cytochrome P450 2C19 (Homo sapiens, UniProt P33261); assay: Inhibition of CYP2C19 in human liver microsomes assessed as reduction in S-mephenytoin 4-hydroxylation by LC-MS/MS analysis; format: ADME
# [13] = Half life in human liver microsomes at 3 uM in presence of NADPH by LC-MS/MS analysis; format: ADME
# [14] = target: Voltage-gated inwardly rectifying potassium channel KCNH2 (Homo sapiens, UniProt Q12809); assay: Inhibition of human ERG
# [15] = target: Cytochrome P450 2C9 (Homo sapiens, UniProt P11712); assay: Inhibition of CYP2C9 in human liver microsomes assessed as reduction in tolbutamide 4-hydroxylation by LC-MS/MS analysis; format: ADME
# [16] = target: CYP1A (Homo sapiens, UniProt P04798+P05177); assay: Inhibition of CYP1A in human liver microsomes assessed as reduction in ethoxyresorufin o-deethylation by fluorescence assay; details: probe ethoxyresorufin (O-deethylation)
# [17] = target: Cytochrome P450 2D6 (Homo sapiens, UniProt P10635); assay: Inhibition of CYP2D6 in human liver microsomes assessed as reduction in dextromethorphan o-demethylation by LC-MS/MS analysis; format: ADME
# [18] = target: D(1A) dopamine receptor (Homo sapiens) (UniProt P21728); assay: Displacement of [3H]SCH 23390 from human recombinant D1 receptor expressed in CHO cells at 10 uM after 60 mins by scintillation counting analysis; format: cell-based
# [19] = system: Mus musculus; assay: Antipsychotic activity in mouse at 10 mg/kg, ip administered 15 mins prior to testing by SmartCube automated system based method relative to standard compound; format: functional, organism-based
# [20] = Chemical stability of the compound in 20 mM NH4Ac buffer solution at pH 7.1 after 96 hrs by HPLC analysis; format: physicochemical; details: pH 7.1, 96 h
# [21] = target: Sodium-dependent dopamine transporter (Homo sapiens) (UniProt Q01959); assay: Displacement of [3H]BTCP from human recombinant dopamine transporter expressed in CHO cells at 10 uM after 120 mins by scintillation counting analysis; format: cell-based
# [22] = target: Sodium-dependent serotonin transporter (Homo sapiens) (UniProt P31645); assay: Displacement of [3H]imipramine from human recombinant 5-HT transporter expressed in CHO cells at 10 uM after 60 mins by scintillation counting analysis; format: cell-based
# [23] = target: Adrenergic receptor alpha-1 (Rattus norvegicus) (UniProt P15823+P23944+P43140); assay: Displacement of [3H]prazosin from rat cerebral cortex adrenergic alpha1 receptor at 10 uM after 60 mins by scintillation counting analysis; format: tissue-based
# [24] = Fraction unbound in mouse plasma at 5 uM by LC-MS/MS based equilibrium dialysis method; format: ADME, cell-free
# [25] = target: Sodium-dependent noradrenaline transporter (Homo sapiens) (UniProt P23975); assay: Displacement of [3H]nisoxetine from human recombinant norepinephrine transporter expressed in CHO cells at 10 uM after 120 mins by scintillation counting analysis; format: cell-based
# [26] = Fraction unbound in human plasma at 5 uM by LC-MS/MS based equilibrium dialysis method; format: ADME, cell-free
# [27] = system: Liver microsome; assay: Drug metabolism in human liver microsomes assessed as formation of 4-(2-methylbenzo[b]thiophen-3-yl)pyrimidineat 3 uM in presence of NADPH by LC-MS/MS analysis; format: ADME
# [28] = target: T1, 5-hydroxytryptamine receptor 2A (Homo sapiens, UniProt P28223); assay: Displacement of [3H]ketanserin from human recombinant 5-HT2A receptor expressed in HEK293 cells at 10 uM after 60 mins by scintillation counting analysis; format: cell-based
# [29] = target: 5-hydroxytryptamine receptor 6 (Homo sapiens) (UniProt P50406); assay: Displacement of [3H]LSD from human recombinant 5-HT6 receptor expressed in CHO cells at 10 uM after 120 mins by scintillation counting analysis; format: cell-based
# [30] = target: T1, 5-hydroxytryptamine receptor 2A; assay: Antagonist activity at 5HT2A (unknown origin)
# [31] = Chemical stability of the compound in 0.01 M HCl at pH 2 after 96 hrs by HPLC analysis; format: physicochemical; details: buffer, pH 2, 96 h
# [32] = target: 5-hydroxytryptamine receptor 3A (Homo sapiens) (UniProt P46098); assay: Displacement of [3H]BRL 43694 from human recombinant 5-HT3 receptor expressed in CHO cells at 10 uM after 120 mins by scintillation counting analysis; format: cell-based
# [33] = Solubility of the compound at pH 7.4; format: physicochemical; details: buffer
# [34] = system: Mus musculus; assay: Antipsychotic-like activity in C57Bl/6J mouse model of schizophrenia assessed as reversal of phencyclidine-induced locomotor activity at 3 to 30 mg/kg, po dosed 30 mins before administration of PCP measured for 60 mins by open field test; format: functional, organism-based
# [35] = target: Adrenergic receptor alpha-2 (Rattus norvegicus) (UniProt P22086+P19328+P22909); assay: Displacement of [3H]RX 821002 from rat cerebral cortex adrenergic alpha2 receptor at 10 uM after 60 mins by scintillation counting analysis; format: tissue-based
# [36] = system: Mus musculus; assay: Antipsychotic activity in C57Bl/6J mouse model of schizophrenia assessed as increase in prepulse inhibition of acoustic startle at 3 to 10 mg/kg, po administered 30 mins prior to testing relative to vehicle-treated control; format: functional, organism-based
# [37] = Drug metabolism in mouse liver microsomes assessed as formation of 4-(2-methylbenzo[b]thiophen-3-yl)pyrimidineat 3 uM in presence of NADPH by LC-MS/MS analysis; format: ADME
# [38] = system: Mus musculus; assay: Effect on basal locomotor activity in C57Bl/6J mouse at 10 to 30 mg/kg, po; format: ADME, organism-based; details: in vivo
# [39] = target: 5-hydroxytryptamine receptor 7 (Homo sapiens) (UniProt P34969); assay: Displacement of [3H]LSD from human recombinant 5-HT7 receptor expressed in CHO cells at 10 uM after 120 mins by scintillation counting analysis; format: cell-based
# [40] = target: Histamine H1 receptor (Homo sapiens) (UniProt P35367); assay: Displacement of [3H]pyrilamine from human recombinant H1 receptor expressed in HEK293 cells at 10 uM after 60 mins by scintillation counting analysis; format: cell-based
# [41] = system: Mus musculus; assay: Effect on basal locomotor activity in C57Bl/6J mouse at 3 mg/kg, po; format: ADME, organism-based; details: in vivo
# [42] = target: 5-hydroxytryptamine receptor 2B (Homo sapiens) (UniProt P41595); assay: Displacement of [3H]mesulergine from human recombinant 5-HT2B receptor expressed in CHO cells at 10 uM after 60 mins by scintillation counting analysis; format: cell-based
# [43] = system: Liver microsome; assay: Drug metabolism in human liver microsomes assessed as formation of 4-(3,4-dimethylthiophen-2-yl)pyrimidine at 3 uM in presence of NADPH by LC-MS/MS analysis; format: ADME
# [44] = Drug metabolism in mouse liver microsomes assessed as formation of 4-(3,4-dimethylthiophen-2-yl)pyrimidine at 3 uM in presence of NADPH by LC-MS/MS analysis; format: ADME
# Chain of D(2) dopamine receptor (Homo sapiens) (P14416 whole entry): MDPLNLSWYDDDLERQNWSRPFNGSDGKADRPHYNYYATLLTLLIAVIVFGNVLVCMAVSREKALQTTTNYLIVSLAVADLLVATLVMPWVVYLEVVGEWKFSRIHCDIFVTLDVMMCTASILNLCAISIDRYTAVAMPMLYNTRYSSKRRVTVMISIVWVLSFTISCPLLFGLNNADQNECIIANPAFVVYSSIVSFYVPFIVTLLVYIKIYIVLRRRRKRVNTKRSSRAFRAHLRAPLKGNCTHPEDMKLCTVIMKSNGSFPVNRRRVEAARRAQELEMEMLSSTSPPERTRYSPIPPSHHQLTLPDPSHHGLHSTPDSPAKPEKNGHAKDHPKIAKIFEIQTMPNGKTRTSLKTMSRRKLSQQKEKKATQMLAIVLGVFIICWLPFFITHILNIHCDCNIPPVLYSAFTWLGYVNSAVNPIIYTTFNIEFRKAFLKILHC
# T1 sequence (P28223 whole entry): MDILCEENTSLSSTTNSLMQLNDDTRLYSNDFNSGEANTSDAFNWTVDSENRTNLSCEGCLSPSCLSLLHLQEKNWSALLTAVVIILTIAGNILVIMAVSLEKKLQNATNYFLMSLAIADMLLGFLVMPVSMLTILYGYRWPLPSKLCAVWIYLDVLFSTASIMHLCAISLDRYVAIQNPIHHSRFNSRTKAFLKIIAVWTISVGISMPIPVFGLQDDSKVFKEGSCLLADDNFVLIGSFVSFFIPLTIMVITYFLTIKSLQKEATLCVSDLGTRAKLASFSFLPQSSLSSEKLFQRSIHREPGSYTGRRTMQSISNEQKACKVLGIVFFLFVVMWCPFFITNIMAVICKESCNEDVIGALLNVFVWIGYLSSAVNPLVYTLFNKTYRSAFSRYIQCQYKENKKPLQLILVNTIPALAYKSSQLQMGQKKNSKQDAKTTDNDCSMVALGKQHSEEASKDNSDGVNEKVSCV
# Chain of Cytochrome P450 2C19 (P33261 whole entry): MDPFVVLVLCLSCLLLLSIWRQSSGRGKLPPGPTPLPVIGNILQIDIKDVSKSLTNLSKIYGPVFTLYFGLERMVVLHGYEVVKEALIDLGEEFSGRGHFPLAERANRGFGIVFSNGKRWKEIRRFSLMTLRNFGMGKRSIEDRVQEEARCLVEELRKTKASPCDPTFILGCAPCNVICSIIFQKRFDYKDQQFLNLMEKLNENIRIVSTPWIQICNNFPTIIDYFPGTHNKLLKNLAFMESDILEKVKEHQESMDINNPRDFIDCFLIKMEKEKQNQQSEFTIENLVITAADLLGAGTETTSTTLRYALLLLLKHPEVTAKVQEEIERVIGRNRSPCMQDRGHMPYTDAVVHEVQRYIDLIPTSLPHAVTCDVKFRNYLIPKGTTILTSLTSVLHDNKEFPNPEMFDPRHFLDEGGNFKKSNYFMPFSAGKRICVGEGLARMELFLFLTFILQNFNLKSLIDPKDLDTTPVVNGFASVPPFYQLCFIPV
# Chain of Voltage-gated inwardly rectifying potassium channel KCNH2 (Q12809 whole entry): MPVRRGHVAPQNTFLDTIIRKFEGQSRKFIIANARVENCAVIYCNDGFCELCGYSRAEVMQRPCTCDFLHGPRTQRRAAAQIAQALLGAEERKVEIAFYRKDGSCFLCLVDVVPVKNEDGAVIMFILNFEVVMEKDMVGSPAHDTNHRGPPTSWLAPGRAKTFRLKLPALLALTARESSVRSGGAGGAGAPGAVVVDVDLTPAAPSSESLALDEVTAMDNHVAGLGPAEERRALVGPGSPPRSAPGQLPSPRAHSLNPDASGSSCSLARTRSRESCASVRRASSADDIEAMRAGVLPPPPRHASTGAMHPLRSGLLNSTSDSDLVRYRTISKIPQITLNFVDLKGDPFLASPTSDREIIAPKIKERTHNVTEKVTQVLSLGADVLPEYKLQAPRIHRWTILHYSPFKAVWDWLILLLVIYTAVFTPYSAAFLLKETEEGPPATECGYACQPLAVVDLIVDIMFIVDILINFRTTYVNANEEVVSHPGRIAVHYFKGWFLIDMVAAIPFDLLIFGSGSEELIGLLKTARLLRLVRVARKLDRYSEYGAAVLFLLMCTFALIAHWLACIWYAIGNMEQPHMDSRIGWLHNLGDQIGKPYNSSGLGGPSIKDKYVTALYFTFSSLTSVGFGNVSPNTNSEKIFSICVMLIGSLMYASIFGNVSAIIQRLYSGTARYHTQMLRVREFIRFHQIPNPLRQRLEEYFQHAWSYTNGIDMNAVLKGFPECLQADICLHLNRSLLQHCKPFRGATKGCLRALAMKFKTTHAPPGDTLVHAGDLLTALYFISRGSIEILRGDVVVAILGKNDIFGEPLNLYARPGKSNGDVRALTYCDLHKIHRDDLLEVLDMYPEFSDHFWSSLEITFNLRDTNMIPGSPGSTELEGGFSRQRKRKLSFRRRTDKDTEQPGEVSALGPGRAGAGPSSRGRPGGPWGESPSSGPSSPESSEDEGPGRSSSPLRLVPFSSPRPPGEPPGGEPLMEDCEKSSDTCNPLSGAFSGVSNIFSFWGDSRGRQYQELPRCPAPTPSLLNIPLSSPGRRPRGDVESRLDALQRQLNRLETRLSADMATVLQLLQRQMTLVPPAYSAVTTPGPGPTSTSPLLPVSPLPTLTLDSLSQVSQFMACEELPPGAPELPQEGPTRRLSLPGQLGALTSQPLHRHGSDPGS
# Chain of Cytochrome P450 2D6 (P10635 whole entry): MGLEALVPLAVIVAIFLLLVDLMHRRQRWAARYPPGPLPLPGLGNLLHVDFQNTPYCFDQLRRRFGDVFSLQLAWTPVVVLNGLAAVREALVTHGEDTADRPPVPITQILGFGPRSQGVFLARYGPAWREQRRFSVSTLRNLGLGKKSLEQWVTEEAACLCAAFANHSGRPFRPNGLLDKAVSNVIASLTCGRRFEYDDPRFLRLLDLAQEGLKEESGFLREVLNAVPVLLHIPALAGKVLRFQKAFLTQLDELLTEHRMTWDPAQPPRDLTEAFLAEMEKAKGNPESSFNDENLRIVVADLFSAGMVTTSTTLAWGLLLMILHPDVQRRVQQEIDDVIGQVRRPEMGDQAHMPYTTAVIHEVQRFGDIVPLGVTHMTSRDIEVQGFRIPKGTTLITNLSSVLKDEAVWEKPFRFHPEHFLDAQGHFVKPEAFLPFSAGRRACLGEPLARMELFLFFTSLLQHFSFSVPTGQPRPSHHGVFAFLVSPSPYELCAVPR
# Chain of Cytochrome P450 2C9 (P11712 whole entry): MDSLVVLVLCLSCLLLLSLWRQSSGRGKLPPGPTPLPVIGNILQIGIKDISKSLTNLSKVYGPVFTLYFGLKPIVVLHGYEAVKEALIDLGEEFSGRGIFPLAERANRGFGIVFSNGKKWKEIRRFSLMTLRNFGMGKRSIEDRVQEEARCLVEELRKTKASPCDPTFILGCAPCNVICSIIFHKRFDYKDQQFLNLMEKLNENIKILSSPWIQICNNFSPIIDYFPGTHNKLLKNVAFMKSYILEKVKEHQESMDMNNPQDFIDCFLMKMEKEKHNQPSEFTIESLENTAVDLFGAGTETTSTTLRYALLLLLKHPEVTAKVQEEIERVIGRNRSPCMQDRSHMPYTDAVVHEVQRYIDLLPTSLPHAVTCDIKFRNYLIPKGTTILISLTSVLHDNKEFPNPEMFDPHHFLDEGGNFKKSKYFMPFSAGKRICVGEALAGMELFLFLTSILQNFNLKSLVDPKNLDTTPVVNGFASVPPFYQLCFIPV
# Chain of Cytochrome P450 3A4 (P08684 whole entry): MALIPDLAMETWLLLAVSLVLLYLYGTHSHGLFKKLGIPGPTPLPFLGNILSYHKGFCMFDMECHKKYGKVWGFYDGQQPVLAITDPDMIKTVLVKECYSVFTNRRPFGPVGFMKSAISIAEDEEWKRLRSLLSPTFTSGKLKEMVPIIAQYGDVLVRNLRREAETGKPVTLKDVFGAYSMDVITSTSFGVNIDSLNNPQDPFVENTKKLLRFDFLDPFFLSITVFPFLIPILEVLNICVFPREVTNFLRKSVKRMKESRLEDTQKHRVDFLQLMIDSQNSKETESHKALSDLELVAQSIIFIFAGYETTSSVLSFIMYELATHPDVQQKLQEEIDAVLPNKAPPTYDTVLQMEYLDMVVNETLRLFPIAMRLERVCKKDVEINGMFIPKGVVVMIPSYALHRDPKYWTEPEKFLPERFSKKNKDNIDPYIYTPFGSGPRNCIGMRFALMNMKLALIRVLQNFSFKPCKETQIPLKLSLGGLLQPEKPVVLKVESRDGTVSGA
# Chain of 5-hydroxytryptamine receptor 7 (Homo sapiens) (P34969 whole entry): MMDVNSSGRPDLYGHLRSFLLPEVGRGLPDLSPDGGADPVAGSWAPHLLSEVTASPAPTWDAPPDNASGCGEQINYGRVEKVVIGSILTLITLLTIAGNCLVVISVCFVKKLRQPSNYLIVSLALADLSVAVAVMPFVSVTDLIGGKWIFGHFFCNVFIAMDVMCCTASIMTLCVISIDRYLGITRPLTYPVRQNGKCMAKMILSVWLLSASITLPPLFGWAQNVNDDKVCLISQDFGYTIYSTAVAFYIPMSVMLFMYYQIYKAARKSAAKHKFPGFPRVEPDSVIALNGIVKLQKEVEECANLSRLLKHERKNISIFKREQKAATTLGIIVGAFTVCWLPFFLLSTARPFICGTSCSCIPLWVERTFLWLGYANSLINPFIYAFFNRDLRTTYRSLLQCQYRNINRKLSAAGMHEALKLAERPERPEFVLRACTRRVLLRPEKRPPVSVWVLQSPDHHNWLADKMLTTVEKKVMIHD
# Chain of 5-hydroxytryptamine receptor 6 (Homo sapiens) (P50406 whole entry): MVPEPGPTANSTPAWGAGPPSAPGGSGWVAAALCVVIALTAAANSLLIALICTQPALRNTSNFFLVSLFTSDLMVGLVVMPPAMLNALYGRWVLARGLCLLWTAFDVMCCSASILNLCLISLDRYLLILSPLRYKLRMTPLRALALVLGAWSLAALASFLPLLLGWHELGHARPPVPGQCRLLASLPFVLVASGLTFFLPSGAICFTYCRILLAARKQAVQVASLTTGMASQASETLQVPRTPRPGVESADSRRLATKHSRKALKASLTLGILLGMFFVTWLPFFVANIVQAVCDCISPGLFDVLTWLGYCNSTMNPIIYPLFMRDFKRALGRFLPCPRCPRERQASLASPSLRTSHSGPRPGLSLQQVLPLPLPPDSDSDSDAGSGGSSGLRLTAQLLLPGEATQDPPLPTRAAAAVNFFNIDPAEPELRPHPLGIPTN
smiles,measurement,setting,value
Cc1sc(C2C=CN=CN2)c(C)c1C.Cl (stereo not given),minimal effective dose,[1],30 mg/kg
CCc1ccc(C2C=CN=CN2)s1.Cl (stereo not given),minimal effective dose,[1],10 mg/kg
CC1=NC=CC(c2c(C)sc3ccccc23)N1.Cl (stereo not given),minimal effective dose,[1],30 mg/kg
Cc1c(C2C=CN=CN2)sc2ccccc12 (stereo not given),Activity,[2],Active
CC1=CN=CNC1c1c(C)sc2ccccc12.Cl (stereo not given),minimal effective dose,[1],30 mg/kg
Cc1c(F)sc(C2C=CN=CN2)c1C.Cl (stereo not given),minimal effective dose,[1],10 mg/kg
Cc1csc(C2C=CN=CN2)c1C (stereo in doubt; 12a),Activity,[3],Active
CC1=CN=CNC1c1sc2ccccc2c1C (stereo not given),Activity,[2],Active
CC1=NC=C(Cl)C(c2sc3ccccc3c2C)N1 (stereo not given),Activity,[2],Active
CCc1cc(Br)c(C2C=CN=CN2)s1.Cl (stereo not given),minimal effective dose,[1],30 mg/kg
Cc1csc(C2C=CN=CN2)c1C (stereo not given),inhibition,[4],18%
same,Activity,[2],Active
Cc1sc2cc(Cl)ccc2c1C1C=CN=CN1.Cl (stereo not given),minimal effective dose,[1],30 mg/kg
Cc1sc2ccc(Cl)cc2c1C1C=CN=CN1.Cl (stereo not given),minimal effective dose,[1],3 mg/kg
Cc1sc2c(F)cccc2c1C1C=CN=CN1.Cl (stereo not given),minimal effective dose,[1],10 mg/kg
Cl.Fc1sc2ccccc2c1C1NC=NC=C1Cl (stereo not given),minimal effective dose,[1],30 mg/kg
Cc1sc2c(c1C1C=CN=CN1)CCC2.Cl (stereo not given),minimal effective dose,[1],10 mg/kg
Cc1sc2c(Cl)cccc2c1C1C=CN=CN1.Cl (stereo not given),minimal effective dose,[1],30 mg/kg
Cc1sc2ccccc2c1C1NC(N)=NC=C1Cl.Cl (stereo not given),minimal effective dose,[1],30 mg/kg
Cc1cc(C2C=CN=CN2)c(C)s1.Cl (racemic),fraction unbound at 5 µM,[5],0.24
same,half-life at 3 µM,[6],2.58 h
same,Activity,[7],>95%
same,inhibition,[8],inactive
same,fraction unbound at 5 µM,[9],0.3
same,IC50,[10],19.8 µM
same,half-life at 3 µM,[11],0.65 h
same,IC50,[12],12.7 µM
same,half-life at 3 µM,[13],0.8 h
same,IC50,[14]; read-out: IC50,> 25 µM
same,IC50,[15],> 25 µM
same,IC50,[16],> 25 µM
same,Activity,[2],40%
same,IC50,[17],6.3 µM
Cl.Fc1ccc(-c2ccc(C3C=CN=CN3)s2)cc1 (stereo not given),minimal effective dose,[1],3 mg/kg
Cc1sc2c(c1C1C=CN=CN1)CCCC2.Cl (stereo not given),minimal effective dose,[1],10 mg/kg
Cc1sc2ccccc2c1C1C=CN=CN1.Cl (stereo not given),minimal effective dose,[1],3 mg/kg
Cc1sc2ccccc2c1[C@@H]1C=CN=CN1,half-life at 3 µM,[6],4.03 h
same,inhibition,[18],77%
same,Activity,[19],Active
same,Stability,[20],Stable
same,inhibition,[21],78%
same,inhibition,[22],94%
same,inhibition,[23],88%
same,fraction unbound at 5 µM,[24],0.18
same,inhibition,[25],51%
same,inhibition,[8],0%
same,IC50,[10],11 µM
same,fraction unbound at 5 µM,[26],0.3
same,Drug metabolism,[27],metabolite_notdetected
same,inhibition,[28],99%
same,half-life at 3 µM,[11],0.483 h
same,IC50,[12],25 µM
same,inhibition,[29],61%
same,IC50,[30],0.356 µM
same,Stability,[31],Stable
same,half-life at 3 µM,[13],2.28 h
same,IC50,[14]; human,> 25 µM
same,inhibition,[32],64%
same,solubility,[33],> 100 µg/mL
same,Activity,[34],Active
same,IC50,[15],6.9 µM
same,IC50,[16],6.9 µM
same,inhibition,[35],97%
same,Activity,[36],Active
same,Drug metabolism,[37],metabolite_notdetected
same,Activity,[38],Toxic
same,Activity,[2],Active
same,inhibition,[39],94%
same,inhibition,[40],86%
same,IC50,[17],3.1 µM
same,Activity,[41],Non-toxic
same,inhibition,[42],81%
Cc1csc(C2C=CN=CN2)c1C.Cl (stereo in doubt; 12b),MED,[1],30 mg/kg
Cc1csc(C2C=CN=CN2)c1C.Cl (stereo in doubt; 12a),Stability,[20],Unstable
same,Drug metabolism,[43],metabolite_notdetected
same,Drug metabolism,[44],metabolite_notdetected
same,MED,[1],3 mg/kg
same,Stability,[31],Stable
Cc1sc2ccccc2c1C1NC=Nc2cc(F)ccc21.Cl (stereo not given),minimal effective dose,[1],30 mg/kg
Cc1sc2cccc(F)c2c1C1C=CN=CN1.Cl (stereo not given),minimal effective dose,[1],3 mg/kg
Clc1c(C2C=CN=CN2)sc2ccccc12 (stereo not given),Activity,[2],Active
Brc1c(C2C=CN=CN2)sc2ccccc12 (stereo not given),Activity,[2],Active
Cc1csc(-c2ccncn2)c1C,Activity,[3],Active
Fc1c(C2NC=Nc3ccccc32)sc2ccccc12 (stereo not given),Activity,[2],Active
Cc1sc2ccccc2c1C1C=CN=CN1C.Cl (stereo not given),minimal effective dose,[1],30 mg/kg

# Reference: ChEMBL document CHEMBL3822388, “In vivo phenotypic drug discovery: applying a behavioral assay to the discovery and optimization of novel antipsychotic agents” (Medchemcomm, 2016)
